Reference: patent US8354403B2, “Pyrrolidine derived beta 3 adrenergic receptor agonists” (Merck Sharp & Dohme Corp., priority 2009, dated 2013)

The compounds below were run against T1, human β3 adrenergic receptor (Homo sapiens, UniProt P13945) (assay: Beta-3 agonist in vitro functional assay: cAMP production (LANCE TR-FRET) in CHO cells stably transfected with the cloned β3 receptor). Details: Table 4; cAMP, CHO cells; read-out: Human β3 agonist functional activity.
T1 construct: expressed in transfected cells; host or cells: Chinese hamster ovary (CHO) cells, stably transfected
T1 sequence (P13945 whole entry): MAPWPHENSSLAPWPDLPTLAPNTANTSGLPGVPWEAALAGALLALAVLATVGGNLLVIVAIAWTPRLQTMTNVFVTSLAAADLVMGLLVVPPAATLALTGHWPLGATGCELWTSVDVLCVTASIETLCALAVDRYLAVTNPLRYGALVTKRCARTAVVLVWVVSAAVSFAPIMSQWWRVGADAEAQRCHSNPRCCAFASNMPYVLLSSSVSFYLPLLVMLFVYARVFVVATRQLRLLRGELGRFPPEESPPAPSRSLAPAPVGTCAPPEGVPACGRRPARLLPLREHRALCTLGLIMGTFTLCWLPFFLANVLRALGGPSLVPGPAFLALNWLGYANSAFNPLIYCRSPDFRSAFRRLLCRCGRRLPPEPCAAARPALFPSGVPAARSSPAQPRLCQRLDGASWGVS
Format: cell-based
Method in brief: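 CHO cells stably expressing the cloned receptor, in HEPES-buffered HBSS with BSA and 0.6 mM IBMX, 6,000 cells/well, exposed to compound for 30 min at RT. cAMP read by LANCE TR-FRET against a cAMP standard curve. Isoproterenol defines maximal stimulation.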

| EC50 [µM] | SMILES |
| --- | --- |
| 0.1 to 0.999 | O=C(c1ccc(C[C@@H]2CC[C@H]([C@H](O)c3ccccc3)N2)cc1)N1CC2CCNC2C1 (stereo partly drawn) [Example 24] |
| 0.01 to 0.0999 | CCOC(=O)C1(S(C)(=O)=O)CCCN(C(=O)c2ccc(C[C@@H]3CC[C@H]([C@H](O)c4ccccc4)N3)cc2)C1 (stereo partly drawn) [Example 36] |
| 0.1 to 0.999 | O=C(c1ccc(C[C@@H]2CC[C@H]([C@H](O)c3ccccc3)N2)cc1)N1CCCC1c1nccs1 (stereo partly drawn) [Example 15] |

Same assay, conditions: Table 5; cAMP, CHO cells; read-out: Human β3 agonist functional activity

| EC50 [µM] | SMILES |
| --- | --- |
| 0.1 to 0.999 | O=C(c1ccc(C[C@@H]2CC[C@H]([C@H](O)c3ccccc3)N2)cc1)N1CCC(n2cc(-c3ccccc3)nn2)CC1 [Example 80] |
| 0.01 to 0.0999 | O=C(c1ccc(C[C@@H]2CC[C@H]([C@H](O)c3ccccc3)N2)cc1)N1CCC(S(=O)(=O)c2cc(F)ccc2F)CC1 [Example 140] |
| 0.1 to 0.999 | Cc1cncn1C1CCN(C(=O)c2ccc(C[C@@H]3CC[C@H]([C@H](O)c4ccccc4)N3)cc2)CC1 [Example 86] |
| 0.01 to 0.0999 | O=C(c1ccc(C[C@@H]2CC[C@H]([C@H](O)c3ccccc3)N2)cc1)N1CCC(n2c(=O)[nH]c3nc(F)ccc32)CC1 [Example 73] |
| 0.001 to 0.0099 | CC(C)n1nnnc1C1CCN(C(=O)c2ccc(C[C@@H]3CC[C@H]([C@H](O)c4ccccc4)N3)cc2)CC1 [Example 109] |
| 0.001 to 0.0099 | Cn1nnnc1C1CCN(C(=O)c2ccc(C[C@@H]3CC[C@H]([C@H](O)c4ccccc4)N3)cc2)CC1 [Example 108] |
| 0.01 to 0.0999 | CS(=O)(=O)c1ccccc1OC1CCN(C(=O)c2ccc(C[C@@H]3CC[C@H]([C@H](O)c4ccccc4)N3)cc2)CC1 [Example 156] |

Same assay, conditions: Table 7; cAMP, CHO cells; ranges as given for Tables 6 and 7; read-out: Human β3 agonist functional activity

| EC50 [µM] | SMILES |
| --- | --- |
| 0.01 to 0.0999 | O=C(c1ncco1)C1C2CN(C(=O)c3ccc(C[C@@H]4CC[C@H]([C@H](O)c5ccccc5)N4)cc3)CC21 (stereo partly drawn) [Example 234] |

Same assay, conditions: Table 8; Beta-3 agonist in vitro functional assay; read-out: Human β3 agonist functional activity

| EC50 [µM] | SMILES |
| --- | --- |
| 0.01 to 0.0999 | O=C(c1ccc(C[C@@H]2CC[C@H]([C@H](O)c3cccnc3)N2)cc1)N1CCC2(CCOC2=O)CC1 [Example 292] |
| 0.1 to 0.999 | NC1CCCC12CCN(C(=O)c1ccc(C[C@@H]3CC[C@H]([C@H](O)c4ccccc4)N3)cc1)CC2 (stereo partly drawn) [Example 315] |
| 0.001 to 0.0099 | CC1OC(=O)C2(CCN(C(=O)c3ccc(C[C@@H]4CC[C@H]([C@H](O)c5ccccc5)N4)cc3)CC2)C1C (stereo partly drawn) [Example 297] |
| 0.1 to 0.999 | CCCN(CCC)C(=O)CC1(c2ccccc2)CCN(C(=O)c2ccc(C[C@@H]3CC[C@H]([C@H](O)c4ccccc4)N3)cc2)CC1 [Example 248] |
| 0.01 to 0.0999 | O=C1OC2(CCN(C(=O)c3ccc(C[C@@H]4CC[C@H]([C@H](O)c5ccccc5)N4)cc3)CC2)c2ccncc21 [Example 285] |
| 0.01 to 0.0999 | O=C(c1ccc(C[C@@H]2CC[C@H]([C@H](O)c3ccccc3)N2)cc1)N1CCC2(CC1)OCCS2(=O)=O [Example 303] |
| 0.1 to 0.999 | Cc1nnc(C2(C3CCCCC3)CCN(C(=O)c3ccc(C[C@@H]4CC[C@H]([C@H](O)c5ccccc5)N4)cc3)CC2)o1 [Example 249] |
| 0.01 to 0.0999 | O=C(c1ccc(C[C@@H]2CC[C@H]([C@H](O)c3ccccc3)N2)cc1)N1CCC2(CC1)C(=O)Oc1ccccc12 [Example 290] |
| 0.01 to 0.0999 | O=C(c1ccc(C[C@@H]2CC[C@H]([C@H](O)c3ccccc3)N2)cc1)N1CCC(F)(S(=O)(=O)c2ccc(F)cc2)CC1 [Example 240] |
| 0.001 to 0.0099 | O=C1CC(c2ccccc2)C2(CCN(C(=O)c3ccc(C[C@@H]4CC[C@H]([C@H](O)c5ccccc5)N4)cc3)CC2)O1 (stereo partly drawn) [Example 280] |
| 0.001 to 0.0099 | O=C(c1ccc(C[C@@H]2CC[C@H]([C@H](O)c3ccccc3)N2)cc1)N1CCC2(CC1)CCN(Cc1ccccc1)C2=O [Example 255] |
| 0.01 to 0.0999 | O=C(c1ccc(C[C@@H]2CC[C@H]([C@H](O)c3ccccc3)N2)cc1)N1CCC2(CCc3cnoc32)CC1 [Example 322] |
| 0.001 to 0.0099 | O=C(c1ccc(C[C@@H]2CC[C@H]([C@H](O)c3ccccc3)N2)cc1)N1CCC2(CCc3ccccc3S2(=O)=O)CC1 [Example 336] |
| 0.01 to 0.0999 | O=C(c1ccc(C[C@@H]2CC[C@H]([C@H](O)c3cccnc3)N2)cc1)N1CCC2(CC1)NC(=O)N(Cc1ccccc1)C2=O [Example 270] |
| 0.01 to 0.0999 | O=C1NC(=O)C2(CCN(C(=O)c3ccc(C[C@@H]4CC[C@H]([C@H](O)c5cccnc5)N4)cc3)CC2)N1 [Example 268] |
| 0.01 to 0.0999 | O=C1CC2(CCN(C(=O)c3ccc(C[C@@H]4CC[C@H]([C@H](O)c5ccccc5)N4)cc3)CC2)Oc2ccc(-c3nnn[nH]3)cc21 [Example 325] |

Same assay, conditions: Table 9; Beta-3 agonist in vitro functional assay; read-out: Human β3 agonist functional activity

| EC50 [µM] | SMILES |
| --- | --- |
| 0.01 to 0.0999 | O=C(c1ccc(C[C@@H]2CC[C@H]([C@H](O)c3ccccc3)N2)cc1)N1CCN(Cc2ccn[nH]2)CC1 [Example 395] |
| 0.1 to 0.999 | Cc1nnc(C(C)N2CCN(C(=O)c3ccc(C[C@@H]4CC[C@H]([C@H](O)c5ccccc5)N4)cc3)CC2)o1 (stereo partly drawn) [Example 424] |
| 0.01 to 0.0999 | COC(=O)c1ccccc1N1CCN(C(=O)c2ccc(C[C@@H]3CC[C@H]([C@H](O)c4ccccc4)N3)cc2)CC1 [Example 351] |
| 0.1 to 0.999 | COC(=O)c1csc(N2CCN(C(=O)c3ccc(C[C@@H]4CC[C@H]([C@H](O)c5ccccc5)N4)cc3)CC2)n1 [Example 381] |
| 0.1 to 0.999 | O=C(c1ccc(C[C@@H]2CC[C@H]([C@H](O)c3ccccc3)N2)cc1)N1CCN(c2nccnc2Cl)CC1 [Example 371] |
| 0.01 to 0.0999 | O=C(c1ccc(C[C@@H]2CC[C@H]([C@H](O)c3ccccc3)N2)cc1)N1CCN(Cc2ncccc2C(F)(F)F)CC1 [Example 417] |
| 0.01 to 0.0999 | O=C(c1ccc(C[C@@H]2CC[C@H]([C@H](O)c3ccccc3)N2)cc1)N1CCN(Cc2ncccc2F)CC1 [Example 418] |
| 0.01 to 0.0999 | O=C(c1ccc(C[C@@H]2CC[C@H]([C@H](O)c3ccccc3)N2)cc1)N1CCN(C(=O)c2ccccn2)CC1 [Example 348] |

Same assay, conditions: Table 10; Beta-3 agonist in vitro functional assay; read-out: Human β3 agonist functional activity

| EC50 [µM] | SMILES |
| --- | --- |
| 0.01 to 0.0999 | CC(C(=O)NC1CCCC1)N1CCN(C(=O)c2ccc(C[C@@H]3CC[C@H]([C@H](O)c4ccccc4)N3)cc2)CC1 (stereo partly drawn) [Example 456] |
| 0.001 to 0.0099 | CC(C(=O)N(C)C)N1CCN(C(=O)c2ccc(C[C@@H]3CC[C@H]([C@H](O)c4ccccc4)N3)cc2)CC1 (stereo partly drawn) [Example 513] |
| 0.01 to 0.0999 | CC(C(=O)N1CCC(F)CC1)N1CCN(C(=O)c2ccc(C[C@@H]3CC[C@H]([C@H](O)c4ccccc4)N3)cc2)CC1 (stereo partly drawn) [Example 491] |
| 0.01 to 0.0999 | CC(C(=O)N(C1CC1)C1CC1)N1CCN(C(=O)c2ccc(C[C@@H]3CC[C@H]([C@H](O)c4ccccc4)N3)cc2)CC1 (stereo partly drawn) [Example 522] |
| 0.001 to 0.0099 | CC(C(=O)N1CCCC(C(F)(F)F)C1)N1CCN(C(=O)c2ccc(C[C@@H]3CC[C@H]([C@H](O)c4ccccc4)N3)cc2)CC1 (stereo partly drawn) [Example 487] |

Same assay, conditions: Table 12; human β3 functional activity given as ranges; read-out: Human β3 agonist functional activity

| EC50 [µM] | SMILES |
| --- | --- |
| 0.001 to 0.0099 | O=C(c1ccc(CC2CCC(C(O)c3cccnc3)N2)cc1)N1CCC2(CC1)C(=O)NCC2c1ccc(F)cc1 (single isomer, unassigned) [Example 556] |
| 0.001 to 0.0099 | CC(c1ccccc1F)N1CCN(C(=O)c2ccc(CC3CCC(C(O)c4ccccc4)N3)cc2)CC1 (single isomer, unassigned) [Example 573] |
| 0.1 to 0.999 | CC(c1cccnn1)N1CCN(C(=O)c2ccc(CC3CCC(C(O)c4ccccc4)N3)cc2)CC1 (single isomer, unassigned) [Example 592] |
| 0.01 to 0.0999 | CC(c1cscn1)N1CCN(C(=O)c2ccc(C[C@@H]3CC[C@H]([C@H](O)c4ccccc4)N3)cc2)CC1 (single isomer, unassigned) [Example 580] |
| 0.001 to 0.0099 | O=C(c1ccc(CC2CCC(C(O)c3ccccc3)N2)cc1)N1CCC2(CC1)C(=O)NCC2c1ccc(F)cc1 (single isomer, unassigned) [Example 557] |
